# Biological target: PKA (Homo sapiens, UniProt P17612)
# Experiment: PKA kinase reaction, ADP luminescent enzyme-coupled assay
# Type: biochemical
# Details: 5 μM ATP, 30 μM Kemptide, 2.5 nM PKA, 90 minutes at room temperature; FIGS. 4A-4B
# Description: Assay Procedures 1. Add 10 μl reagent A to 30 μl kinase reaction mixtures and incubate at RT. 2. Add 10 μl reagent B and read luminescence immediately.
# At the end of incubation, 10 μl Reagent B were added and luminescence was measured. Each data point represents the average of 3 repeats.
smiles,measurement,value
O=S(=O)(NCCNC/C=C/c1ccc(Br)cc1)c1cccc2cnccc12 [H89],luminescence signals (PKA activity) with increasing amounts of inhibitor,decreased luminescence signals in a dose dependent manner

# From patent US8420341B2, “Methods for measuring ADP” (Genewiz Inc., Suzhou, priority 2007, dated 2013)
